Measured values reported in ChEMBL document CHEMBL1137621, “3-Nitro-4-amino benzoic acids and 6-amino nicotinic acids are highly selective agonists of GPR109b” (Bioorg Med Chem Lett, 2007).
pEC50: −log10 of the molar value. Activity calls are given as the source filed them. The calls are words filed in the database; no cut-off is given here.

Assays:
[1] = target: T1, Hydroxycarboxylic acid receptor 2 (Homo sapiens, UniProt Q8TDS4); assay: Agonist activity at human GPR109a receptor transfected in CHOK1 cells at 30 uM assessed as reversal of forskolin induced cAMP elevating effect by whole cell assay; type: functional, cell-based; conditions: CHO-K1
[2] = target: Hydroxycarboxylic acid receptor 3 (Homo sapiens, UniProt P49019); assay: Agonist activity at human GPR109b receptor transfected in CHOK1 cells assessed as reversal of forskolin-induced cAMP elevating effect by whole cell assay; type: functional, cell-based, CHO-K1
[3] = target: T1, Hydroxycarboxylic acid receptor 2; assay: Agonist activity at human GPR109a receptor transfected in CHOK1 cells assessed as reversal of forskolin induced cAMP elevating effect by whole cell assay; type: functional, cell-based, CHO-K1

Hydroxycarboxylic acid receptor 3, sequence (P49019 whole entry): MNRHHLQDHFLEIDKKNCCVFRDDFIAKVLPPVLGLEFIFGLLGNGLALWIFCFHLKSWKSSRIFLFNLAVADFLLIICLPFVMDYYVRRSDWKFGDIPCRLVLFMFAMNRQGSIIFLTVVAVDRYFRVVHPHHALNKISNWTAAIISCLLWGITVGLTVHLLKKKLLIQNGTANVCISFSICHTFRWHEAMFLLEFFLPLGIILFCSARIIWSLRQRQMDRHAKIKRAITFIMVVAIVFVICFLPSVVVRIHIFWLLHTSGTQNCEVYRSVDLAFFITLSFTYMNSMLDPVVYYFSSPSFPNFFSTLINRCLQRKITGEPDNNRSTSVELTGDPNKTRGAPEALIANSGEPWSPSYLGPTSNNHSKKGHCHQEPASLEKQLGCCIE
T1 sequence (Q8TDS4 whole entry): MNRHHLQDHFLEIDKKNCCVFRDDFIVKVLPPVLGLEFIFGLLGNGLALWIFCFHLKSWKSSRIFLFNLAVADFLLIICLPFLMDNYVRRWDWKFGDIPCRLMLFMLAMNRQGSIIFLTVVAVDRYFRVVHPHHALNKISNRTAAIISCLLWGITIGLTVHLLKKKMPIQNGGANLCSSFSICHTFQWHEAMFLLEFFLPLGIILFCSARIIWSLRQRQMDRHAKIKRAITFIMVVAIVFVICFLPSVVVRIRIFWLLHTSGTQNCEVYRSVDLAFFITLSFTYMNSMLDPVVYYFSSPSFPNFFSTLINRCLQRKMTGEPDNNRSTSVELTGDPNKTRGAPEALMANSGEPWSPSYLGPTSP

| SMILES | Activity [1] | pEC50 [2] | Activity ([2]; CHO-K1) | pEC50 [3] |
| --- | --- | --- | --- | --- |
| COCCNc1ccc(C(=O)O)cn1 | inactive | 6.03 | – | – |
| CCCN(C)c1ccc(C(=O)O)cc1[N+](=O)[O-] | inactive | 7.28 | – | – |
| O=C(O)c1ccc(N2CCCC2)nc1 | inactive | – | inactive | – |
| O=C(O)c1ccc(NCC2CCCO2)c([N+](=O)[O-])c1 (centres undefined) | inactive | 6.51 | – | – |
| CC(C)C(C)Nc1ccc(C(=O)O)cc1[N+](=O)[O-] (centres undefined) | inactive | 6.44 | – | – |
| O=C(O)c1ccc(NC2CC2)nc1 | inactive | 6.49 | – | – |
| CCNc1ccc(C(=O)O)cn1 | inactive | 6.40 | – | – |
| CCCNc1ccc(C(=O)O)cc1[N+](=O)[O-] | inactive | 7.53 | – | – |
| O=C(O)c1ccc(NC2CCC2)c([N+](=O)[O-])c1 | inactive | 6.70 | – | – |
| CCC(C)Nc1ccc(C(=O)O)cn1 (centres undefined) | inactive | 6.42 | – | – |
| CCCCCNc1ccc(C(=O)O)cn1 | inactive | 6.82 | – | – |
| CCN(CC)c1ccc(C(=O)O)cn1 | inactive | < 5.00 | – | – |
| CCC(C)Nc1ccc(C(=O)O)cc1[N+](=O)[O-] (centres undefined) | inactive | 6.82 | – | – |
| CC(C)CNc1ccc(C(=O)O)cn1 | – | 5.97 | – | 4.46 |
| CNc1ccc(C(=O)O)cn1 | inactive | 5.13 | – | – |
| CC(C)C(C)Nc1ccc(C(=O)O)cn1 (centres undefined) | inactive | 5.88 | – | – |
| CCNc1ccc(C(=O)O)cc1[N+](=O)[O-] | inactive | 6.64 | – | – |
| COCC(C)Nc1ccc(C(=O)O)cc1[N+](=O)[O-] (centres undefined) | inactive | 5.85 | – | – |
| O=C(O)c1ccc(Nc2ccccc2)nc1 | inactive | 5.49 | – | – |
| O=C(O)c1ccc(NCC2CCCO2)nc1 (centres undefined) | inactive | 6.22 | – | – |
| COCC(C)Nc1ccc(C(=O)O)cn1 (centres undefined) | inactive | 5.49 | – | – |
| O=C(O)c1ccc(NC2CCCC2)nc1 | inactive | 6.41 | – | – |
| CC(C)Nc1ccc(C(=O)O)cn1 | inactive | 6.22 | – | – |
| CN(C)c1ccc(C(=O)O)cc1[N+](=O)[O-] | inactive | 5.69 | – | – |

| SMILES | Activity [1] | pEC50 [2] | Activity ([2]; CHO-K1) | pEC50 [3] |
| --- | --- | --- | --- | --- |
| O=C(O)c1ccc(N2CCCC2)c([N+](=O)[O-])c1 | inactive | < 5.00 | – | – |
| CCCN(CCC)c1ccc(C(=O)O)cn1 | inactive | 5.20 | – | – |
| CCCCNc1ccc(C(=O)O)cc1[N+](=O)[O-] | inactive | 6.80 | – | – |
| CC(C)Nc1ccc(C(=O)O)cc1[N+](=O)[O-] | inactive | 6.59 | – | – |
| C=CCNc1ccc(C(=O)O)cn1 | inactive | 7.15 | – | – |
| C=CCNc1ccc(C(=O)O)cc1[N+](=O)[O-] | inactive | 7.00 | – | – |
| O=C(O)c1ccc(NC2CC2)c([N+](=O)[O-])c1 | inactive | 6.51 | – | – |
| O=C(O)c1ccc(NC2CCCC2)c([N+](=O)[O-])c1 | inactive | 6.51 | – | – |
| O=C(O)c1ccc(Nc2ccccc2)c([N+](=O)[O-])c1 | inactive | 5.61 | – | – |
| CCC(CC)Nc1ccc(C(=O)O)cc1[N+](=O)[O-] | inactive | 7.24 | – | – |
| CCCN(CCC)c1ccc(C(=O)O)cc1[N+](=O)[O-] | inactive | 6.92 | – | – |
| CCCNc1ccc(C(=O)O)cn1 | inactive | 7.29 | – | – |
| CN(C)c1ccc(C(=O)O)cn1 | inactive | < 5.00 | – | – |
| CCC(CC)Nc1ccc(C(=O)O)cn1 | – | 6.57 | – | 4.70 |
| COCCNc1ccc(C(=O)O)cc1[N+](=O)[O-] | inactive | 6.23 | – | – |
| CCN(CC)c1ccc(C(=O)O)cc1[N+](=O)[O-] | inactive | 6.20 | – | – |
| CCCCNc1ccc(C(=O)O)cn1 | inactive | 7.00 | – | – |
| CCCCCNc1ccc(C(=O)O)cc1[N+](=O)[O-] | inactive | 6.55 | – | – |
| O=C(O)c1ccc(NC(=O)c2ccccc2)c([N+](=O)[O-])c1 | inactive | 5.51 | – | – |
| CNc1ccc(C(=O)O)cc1[N+](=O)[O-] | inactive | 5.72 | – | – |
| O=C(O)c1ccc(NC2CCC2)nc1 | inactive | 7.14 | – | – |
| O=C(O)c1ccc(NC(=O)c2ccccc2)nc1 | inactive | 5.80 | – | – |
| CCCN(C)c1ccc(C(=O)O)cn1 | inactive | 5.79 | – | – |
